Where two headings read alike, the source gives them in different places.
Target: T1, OATP-C protein (Homo sapiens, UniProt Q9Y6L6)
T1 sequence (Q9Y6L6 1-691): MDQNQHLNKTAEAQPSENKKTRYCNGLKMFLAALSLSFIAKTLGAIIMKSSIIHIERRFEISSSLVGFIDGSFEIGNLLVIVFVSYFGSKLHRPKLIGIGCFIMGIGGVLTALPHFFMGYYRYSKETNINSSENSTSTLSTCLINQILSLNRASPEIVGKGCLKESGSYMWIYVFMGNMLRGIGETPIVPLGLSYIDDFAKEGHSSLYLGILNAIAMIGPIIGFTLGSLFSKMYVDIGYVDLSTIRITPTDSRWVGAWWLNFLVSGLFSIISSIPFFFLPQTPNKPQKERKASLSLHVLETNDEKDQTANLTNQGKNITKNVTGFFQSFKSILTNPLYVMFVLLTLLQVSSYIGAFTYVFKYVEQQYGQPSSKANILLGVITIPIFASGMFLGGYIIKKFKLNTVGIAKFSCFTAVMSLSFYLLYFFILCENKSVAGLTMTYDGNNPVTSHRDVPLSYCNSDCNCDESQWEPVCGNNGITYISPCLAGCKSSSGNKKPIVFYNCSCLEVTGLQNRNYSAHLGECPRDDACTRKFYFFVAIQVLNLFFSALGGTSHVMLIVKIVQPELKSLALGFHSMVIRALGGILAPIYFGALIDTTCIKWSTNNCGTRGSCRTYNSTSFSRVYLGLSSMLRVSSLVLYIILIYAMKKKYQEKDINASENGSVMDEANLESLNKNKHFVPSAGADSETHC
Experiment: Transport experiment: uptake of labeled substrates into HEK293 cells transfected with OATP-C
Procedure: The human fetal kidney-derived cell strain, HEK 293 cells, were transfected with the plasmid pcDNA3/OATP-C or the pcDNA3 vector containing no insert as a control (mock) by the calcium phosphate method. Specifically, the plasmid DNA (10 μg), a Hepes buffer solution (137 mM NaCl 5 mM KCl, 0.7 mM Na2HPO4, 6 mM dextrose, and 21 mM Hepes pH 7.1) (1 ml), and 2 M CaCl2 (62.5 μl) were mixed and the resultant mixture was allowed to stand at room temperature for 30 min or more to form calcium phosphate coprecipitates. After the cells were plated on 10-cm diameter plates at a concentration of 1.5×10^6 cells per plate, and the cells were cultured for 24 h. The above-described calcium phosphate coprecipitates were added thereto, and the cells were further cultured for 24 h. Then, plates were washed with phosphate buffered saline (PBS), and after the addition of fresh culture medium, the cells were further cultured for 24 h.
Transport experiment was performed using the cells transfected with the plasmid DNA according to the following procedures. The cells were detached from the plates using a rubber policeman, suspended in a transport buffer (containing 125 mM NaCl, 4.8 mM KCl, 5.6 mM (+)-glucose, 1.2 mM CaCl2, 1.2 mM KH2PO4, 1.2 mM MgSO4, and 25 mM Hepes pH 7.4), and pre-incubated for 20 min. […] Incubated cells were overlaid on a silicon layer formed by laying a mixture of silicon oil and liquid paraffin (specific gravity=1.022) on a 3 M KCl layer, and separated by centrifugation. Radioactivity of cells was measured to determine the into-the-cell transport activity. In this case, 1×10^6 cells were used as one point of cells.
Herein, the culture of HEK 293 cells was performed using Dulbecco's MEM containing 10% FCS (fetal calf serum) as the culture medium in an atmosphere of 5% carbon dioxide at 37° C.

[1] = HEK293 cells expressing OATP-C vs mock, labeled substrate, 37° C. (FIG. 3)

| Structure (SMILES) | into-the-cell transport activity [1] | alteration of transport mediated by OATP-C protein (chloride ion substituted with gluconate (FIG. 6)) | alteration of transport mediated by OATP-C protein (sodium ion replaced with N-methylglucamine (FIG. 6)) | into-the-cell transport activity |
| --- | --- | --- | --- | --- |
| C[C@]12CC[C@@H]3c4ccc(O)cc4CC[C@H]3[C@@H]1CC[C@@H]2O[C@@H]1O[C@H](C(=O)O)[C@@H](O)[C@H](O)[C@H]1O [estradiol-17β-glucuronide] | transport was obviously observed | No alteration | No alteration | – |
| C[C@]12CC[C@@H]3c4ccc(OS(=O)(=O)O)cc4CC[C@H]3[C@@H]1CCC2=O [estron-3-sulfate] | transport was obviously observed | – | – | – |
| CN(Cc1cnc2nc(N)nc(N)c2n1)c1ccc(C(=O)N[C@@H](CCC(=O)O)C(=O)O)cc1 [methotrexate] | – | – | – | weak transport activity |
| C[C@@H]1O[C@@H](O[C@H]2C[C@@H](O)[C@]3(CO)[C@H]4[C@H](O)C[C@]5(C)[C@@H](C6=CC(=O)OC6)CC[C@]5(O)[C@@H]4CC[C@]3(O)C2)[C@H](O)[C@H](O)[C@H]1O [ouabain] | weak transport activity | – | – | – |
| CCCCC[C@H](O)/C=C/[C@H]1[C@H](O)CC(=O)[C@@H]1C/C=C\CCCC(=O)O [prostaglandin E2] | weak transport activity | – | – | – |
